Results on five compounds are retold here after patent US20210069189A1, “TREATMENT OF NEURODEGENERATIVE DISEASES” (BENEVOLENTAI BIO LIMITED, priority 2017, published 2021).

The test system of one data set is ALS. Particulars: ALS patients; cited from earlier work.
Data set [1] has as its system murine Hb9-GFP+ motor neurons co-cultured with ALS patient-derived iAstrocytes. The experiment in a line: ALS patient iAstrocyte / mouse Hb9-GFP+ motor neuron co-culture, motor neuron survival. In kind it is cell-based, human iAstrocytes. Particulars: iAstrocytes pre-treated 24 hours with various concentrations; viable motor neurons at 72 h as percentage of 24 h, normalised to DMSO control; FIG. 2. The procedure:
ALS iAstrocytes were pre-treated with various concentrations of nilotinib, bafetinib or bosutinib for 24 hours, prior to murine Hb9-GFP motor neuron seeding in co-culture. The number of viable motor neurons was then measured 24 and 72 hours after motor neuron seeding, and the percentage motor neuron survival was calculated, and then normalised to the untreated control of the respective line. *P<0.05, **P<0.01, ***P<0.001. One-way ANOVA with Dunnett's post-hoc test. Data are mean±SD. n=5-6.
This example describes the effect of nilotinib, bafetinib and bosutinib on motor neuron survival in an in vitro model of ALS. This model uses human fibroblast-derived astrocytes and mouse Hb9−GFP+ motor neurons in co-culture (Meyer et al., 2014, PNAS 111, 829-832). The fibroblasts were reprogrammed to induced neural progenitor cells (iNPCs), which were differentiated into Astrocytes. Astrocytes derived from ALS patients cause death of the wild-type Hb9−GFP+ mouse motor neurons in co-culture, a property not seen in astrocytes derived from normal (non-ALS) patients. […]
3,000 human iAstrocytes were seeded per well on fibronectin-coated 384-well plates. […] Hb9− GFP+ motor neurons were imaged after 24 and 72 hours using an INCELL analyser 2000 (GE Healthcare), and the number of viable motor neurons was counted using the INCELL analyser software (GE Healthcare).
The number of viable motor neurons (defined as GFP+ motor neurons with at least 1 axon) 25 that survived after 72 hours in co-culture was calculated as a percentage of the number of viable motor neurons after 24 hours in co-culture. […]

The subject of data set [2] is SOD1^G93A mouse model of ALS. Particulars: cited from earlier work.
In the next data set the target is P-glycoprotein (P-gp) (Homo sapiens, UniProt P08183). Particulars: cited from earlier work.
Chain of P-glycoprotein (P-gp) (P08183 whole entry): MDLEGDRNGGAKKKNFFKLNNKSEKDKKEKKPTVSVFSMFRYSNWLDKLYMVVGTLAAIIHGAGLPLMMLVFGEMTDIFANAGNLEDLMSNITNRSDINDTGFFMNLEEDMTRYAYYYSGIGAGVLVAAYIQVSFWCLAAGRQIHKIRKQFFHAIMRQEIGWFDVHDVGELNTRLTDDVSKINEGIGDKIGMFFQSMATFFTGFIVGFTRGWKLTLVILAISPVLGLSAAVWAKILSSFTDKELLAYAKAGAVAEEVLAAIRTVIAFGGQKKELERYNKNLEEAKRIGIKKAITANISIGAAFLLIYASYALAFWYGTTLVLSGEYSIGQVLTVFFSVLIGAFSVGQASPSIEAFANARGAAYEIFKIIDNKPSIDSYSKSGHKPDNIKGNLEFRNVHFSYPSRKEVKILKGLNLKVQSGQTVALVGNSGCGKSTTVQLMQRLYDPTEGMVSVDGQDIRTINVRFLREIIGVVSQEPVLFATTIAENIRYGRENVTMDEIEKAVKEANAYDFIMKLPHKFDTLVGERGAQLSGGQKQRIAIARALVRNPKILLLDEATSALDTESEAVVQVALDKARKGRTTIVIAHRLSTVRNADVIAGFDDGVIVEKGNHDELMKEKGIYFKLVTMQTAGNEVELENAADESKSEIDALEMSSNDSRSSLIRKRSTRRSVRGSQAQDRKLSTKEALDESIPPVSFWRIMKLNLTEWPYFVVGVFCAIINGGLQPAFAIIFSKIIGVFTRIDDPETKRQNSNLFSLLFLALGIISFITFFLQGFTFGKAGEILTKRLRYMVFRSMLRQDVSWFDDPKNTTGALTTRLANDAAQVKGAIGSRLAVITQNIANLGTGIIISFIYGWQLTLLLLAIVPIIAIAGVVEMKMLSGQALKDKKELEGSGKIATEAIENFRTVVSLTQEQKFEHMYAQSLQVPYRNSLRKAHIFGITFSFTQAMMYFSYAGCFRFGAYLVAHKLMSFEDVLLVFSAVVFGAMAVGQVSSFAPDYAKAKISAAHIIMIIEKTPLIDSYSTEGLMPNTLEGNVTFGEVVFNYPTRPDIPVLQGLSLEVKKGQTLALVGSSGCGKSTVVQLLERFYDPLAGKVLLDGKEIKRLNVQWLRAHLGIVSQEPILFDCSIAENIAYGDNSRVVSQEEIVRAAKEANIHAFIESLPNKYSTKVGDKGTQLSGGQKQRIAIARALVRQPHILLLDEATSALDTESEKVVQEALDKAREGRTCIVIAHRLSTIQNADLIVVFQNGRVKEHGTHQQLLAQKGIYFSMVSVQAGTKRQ

Consider `Nc1nc2ccc(OC(F)(F)F)cc2s1` [Riluzole], for which the prolongation of life in the data set with ALS is recorded as 2-3 months.
Regarding `C=CC(=O)Nc1cc2c(Nc3ccc(F)c(Cl)c3)ncnc2cc1OCCCN1CCOCC1` [canertinib], in data set [1], the motor neuron survival entry is “no such increase in survival”.
Consider `C#Cc1cccc(Nc2ncnc3cc(OCCOC)c(OCCOC)cc23)c1` [erlotinib], for which, in data set [2], the lifespan entry is listed as “failed to extend lifespan”; the “penetration into the central nervous system” value was “penetrated into the central nervous system”; the “protection of motor synapses” value was “did not protect motor synapses”; the “symptom delay (disease onset and progression)” value is on record as “modest yet statistically significant symptom delay”.
For the compound `Cc1ccc(NC(=O)c2ccc(CN3CCN(C)CC3)cc2)cc1Nc1nc(-c2cccnc2)cs1` [masitinib], in data set [1], the motor neuron survival result is reported as “no such increase in survival”.
For the compound `Cc1cn(-c2cc(NC(=O)c3ccc(C)c(Nc4nccc(-c5cccnc5)n4)c3)cc(C(F)(F)F)c2)cn1` [nilotinib], the motor neuron survival entry in data set [1] was “dose-dependent increase in motor neuron survival”. The P-glycoprotein substrate entry at P-glycoprotein (P-gp) is listed as “P-glycoprotein (P-gp) substrate”.
